# In paper PMC11796242, “Nitidine chloride inhibits the progression of hepatocellular carcinoma by suppressing IGF2BP3 and modulates metabolic pathways in an m^6A-dependent manner” (Molecular Medicine, 2025):
# Molecular target: T1, IGF2BP3 (Homo sapiens, UniProt O00425)
# T1 construct: immobilised by amine coupling on CM5 chip (PDB 6GQE used only for docking)
# Experiment: SPR (BIAcore T200, CM5 chip, immobilised IGF2BP3, […] Langmuir global fit)
# Assay type: binding
# T1 sequence (O00425 whole entry): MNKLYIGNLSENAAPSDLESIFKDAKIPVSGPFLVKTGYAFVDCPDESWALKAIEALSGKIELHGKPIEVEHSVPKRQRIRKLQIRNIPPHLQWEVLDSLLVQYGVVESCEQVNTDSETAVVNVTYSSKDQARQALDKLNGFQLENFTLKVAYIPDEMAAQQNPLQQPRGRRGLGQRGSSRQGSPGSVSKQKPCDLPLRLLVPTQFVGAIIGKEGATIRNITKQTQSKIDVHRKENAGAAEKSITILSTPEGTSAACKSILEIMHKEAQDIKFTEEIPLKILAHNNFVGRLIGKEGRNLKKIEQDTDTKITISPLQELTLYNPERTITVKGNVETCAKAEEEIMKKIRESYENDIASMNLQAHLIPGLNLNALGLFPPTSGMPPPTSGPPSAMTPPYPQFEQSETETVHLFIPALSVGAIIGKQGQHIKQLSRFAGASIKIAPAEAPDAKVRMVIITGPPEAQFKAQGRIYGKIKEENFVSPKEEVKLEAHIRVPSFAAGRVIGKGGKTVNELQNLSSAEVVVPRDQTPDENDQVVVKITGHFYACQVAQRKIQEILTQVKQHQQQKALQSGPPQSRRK
compound,measurement,value
COc1cc2c[n+](C)c3c4cc5c(cc4ccc3c2cc1OC)OCO5 [nitidine chloride],Kd,6.37 µM
